Reference: the supplement of paper PMC10331698
± gives the standard deviation of the averaged measurements.

Experiments:
Experiment in all cases: level (log10 ratio to DMSO vehicle control); higher = higher biomarker level / cell amount than vehicle control
[1] = compound: O=S(=O)(F)C(F)(F)C(F)(F)C(F)(F)C(F)(F)C(F)(F)C(F)(F)C(F)(F)C(F)(F)F [Perfluorooctanesulfonyl fluoride]; settings: in DMSO
Protocol: (§1)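 BioMAP Diversity Plus panel of 12 human primary cell co-culture systems (3C, 4H, LPS, SAg, BT, BF4T, BE3C, CASM3C, HDF3CGF, KF3CT, MyoF, Mphg). Compounds were added 1 h before stimulation and left for 24 h (MyoF 48 h; BT 72 h for soluble read-outs or 6 d for IgG). Biomarkers were read by ELISA, cytotoxicity by SRB, PBMC viability and proliferation by Alamar Blue. Each well value was divided by the mean of 8 DMSO control wells on the same plate and log10 transformed; duplicate blinded samples were tested at 4 concentrations.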

[2] = compound: NC(=O)C(F)(F)C(F)(F)C(F)(F)C(F)F; settings: in DMSO
Protocol: as §1

[3] = compound: FC(F)(F)C(F)(F)C(F)(F)C(F)(F)C(F)(F)C(F)(F)CC1CO1 [3-(Perfluorohexyl)-1,2-epoxypropane]; settings: in DMSO
Protocol: as §1

[4] = compound: O=C(O)C(F)(F)C(F)(F)C(F)(F)C(F)(F)C(F)(F)C(F)(F)C(F)(F)C(F)(F)C(F)(F)C(F)F [11-H-Perfluoroundecanoic acid]; settings: in DMSO
Protocol: as §1

Heptafluorobutyl iodide = compound: FC(F)(F)C(F)(F)C(F)(F)CI [Heptafluorobutyl iodide]; settings: in DMSO
Protocol: as §1

[5] = compound: O=C(O)C=CC(F)(C(F)(F)F)C(F)(F)F [3-(Perfluoroisopropyl)-2-propenoic acid]; settings: in DMSO
Protocol: as §1

Octafluoroadipamide = compound: NC(=O)C(F)(F)C(F)(F)C(F)(F)C(F)(F)C(N)=O [Octafluoroadipamide]; settings: in DMSO
Protocol: as §1

[6] = compound: NS(=O)(=O)C(F)(F)C(F)(F)C(F)(F)C(F)(F)C(F)(F)C(F)(F)F [Perfluorohexanesulfonamide]; settings: in DMSO
Protocol: as §1

[7] = compound: O=S(=O)(O)C(F)(F)C(F)(F)C(F)(F)C(F)(F)C(F)(F)C(F)(F)C(F)(F)C(F)(F)C(F)(F)C(F)(F)F [Sodium perfluorodecanesulfonate]; settings: in DMSO
Protocol: as §1

[8] = compound: FC(F)(F)C(F)(F)CNCC(F)(F)C(F)(F)F [Bis(1H,1H-perfluoropropyl)amine]; settings: in DMSO
Protocol: as §1

[9] = compound: COC(=O)C(F)(F)C(F)(F)OC(F)(C(F)(F)F)C(F)(F)OC(F)=C(F)F [Methyl perfluoro(3-(1-ethenyloxypropan-2-yloxy)propanoate)]; settings: in DMSO
Protocol: as §1

[10] = compound: FC(F)(F)C(F)(F)C(F)(F)C(F)(F)C(F)(F)C(F)(F)C(F)(F)I [1-Iodopentadecafluoroheptane]; settings: in DMSO
Protocol: as §1

[11] = compound: FC(F)(F)C(F)(F)C(F)(F)CC1CO1 [1H,1H-Heptafluorobutyl epoxide]; settings: in DMSO
Protocol: as §1

Hexafluoroamylene glycol = compound: OCC(F)(F)C(F)(F)C(F)(F)CO [Hexafluoroamylene glycol]; settings: in DMSO
Protocol: as §1

[12] = compound: O=S(=O)(O)CCC(F)(F)C(F)(F)C(F)(F)C(F)(F)C(F)(F)C(F)(F)F [6:2 Fluorotelomer sulfonic acid]; settings: in DMSO
Protocol: as §1

[13] = compound: C=CC(=O)OCC(F)(F)C(F)(F)C(F)(F)COC(=O)C=C [1H,1H,5H,5H-Perfluoro-1,5-pentanediol diacrylate]; settings: 6700 nM; in DMSO
Protocol: as §1

[14] = compound: C=C(C)C(=O)OCCC(F)(F)C(F)(F)C(F)(F)C(F)(F)C(F)(F)C(F)(F)F [6:2 Fluorotelomer methacrylate]; settings: in DMSO
Protocol: as §1

Nonafluoropentanamide = compound: NC(=O)C(F)(F)C(F)(F)C(F)(F)C(F)(F)F [Nonafluoropentanamide]; settings: in DMSO
Protocol: as §1

[15] = compound: O=S(=O)(Cl)C(F)(F)C(F)(F)C(F)(F)C(F)(F)C(F)(F)C(F)(F)C(F)(F)C(F)(F)F [Perfluoro-1-octanesulfonyl chloride]; settings: in DMSO
Protocol: as §1

BE3C:MMP-1 was tested, and the “level (log10)” value ([1]; 6700 nM) was -0.0045 ± 0.00071, the “level (log10)” value ([1]; 20000 nM) was -0.001 ± 0.014 and the “level (log10)” value ([1]; 60000 nM) was -0.0005 ± 0.013. For the same test system, the “level (log10)” value ([2]; 6700 nM) was 0.003 ± 0.054, the “level (log10)” value ([2]; 20000 nM) was -0.001 ± 0.0014 and the “level (log10)” value ([2]; 60000 nM) was 0.024 ± 0.0057. The “level (log10)” value ([3]; 6700 nM) was 0.022 ± 0.075, the “level (log10)” value ([3]; 20000 nM) was 0.0255 ± 0.061 and the “level (log10)” value ([3]; 60000 nM) was 0.0655 ± 0.03. The “level (log10)” value ([4]; 6700 nM) was 0.068 ± 0.013, the “level (log10)” value ([4]; 20000 nM) was -0.132 ± 0.012 and the “level (log10)” value (Heptafluorobutyl iodide; 6700 nM) was 0 ± 0.0014. The “level (log10)” value (Heptafluorobutyl iodide; 20000 nM) was -0.0085 ± 0.005, the “level (log10)” value (Heptafluorobutyl iodide; 60000 nM) was 0.02 ± 0.0099 and the “level (log10)” value ([5]; 6700 nM) was 0.0495 ± 0.06. The “level (log10)” value ([5]; 20000 nM) was 0.034 ± 0.061, the “level (log10)” value ([5]; 60000 nM) was 0.085 ± 0.0028 and the “level (log10)” value (Octafluoroadipamide; 6700 nM) was -0.01 ± 0.0028. The “level (log10)” value (Octafluoroadipamide; 20000 nM) was -0.023 ± 0.037, the “level (log10)” value (Octafluoroadipamide; 60000 nM) was 0.0305 ± 0.074 and the “level (log10)” value ([6]; 6700 nM) was 0.0255 ± 0.015. The “level (log10)” value ([6]; 20000 nM) was 0.0645 ± 0.0035, the “level (log10)” value ([6]; 60000 nM) was 0.195 ± 0.02 and the “level (log10)” value ([7]; 1500 nM) was -0.0225 ± 0.053. The “level (log10)” value ([7]; 4400 nM) was 0.0585 ± 0.059, the “level (log10)” value ([7]; 13000 nM) was 0.239 ± 0.011 and the “level (log10)” value ([7]; 40000 nM) was 0.153 ± 0.0071. For the same test system, the “level (log10)” value ([8]; 6700 nM) was -0.0145 ± 0.026, the “level (log10)” value ([8]; 20000 nM) was -0.014 ± 0.011 and the “level (log10)” value ([8]; 60000 nM) was 0.0185 ± 0.049. For the same test system, the “level (log10)” value ([9]; 6700 nM) was 0.102 ± 0.025, the “level (log10)” value ([9]; 20000 nM) was 0.176 ± 0.0092 and the “level (log10)” value ([10]; 6700 nM) was -0.0205 ± 0.0078. For the same test system, the “level (log10)” value ([10]; 20000 nM) was -0.011, the “level (log10)” value ([11]; 6700 nM) was 0.003 ± 0.027 and the “level (log10)” value ([11]; 20000 nM) was 0.002 ± 0.055. For the same test system, the “level (log10)” value ([11]; 60000 nM) was 0.041 ± 0.092, the “level (log10)” value (Hexafluoroamylene glycol; 6700 nM) was -0.009 ± 0.017 and the “level (log10)” value (Hexafluoroamylene glycol; 20000 nM) was -0.03 ± 0.0057. The “level (log10)” value (Hexafluoroamylene glycol; 60000 nM) was 0.015 ± 0.025, the “level (log10)” value ([12]; 6700 nM) was -0.013 ± 0.017 and the “level (log10)” value ([12]; 20000 nM) was -0.0105 ± 0.018. For the same test system, the “level (log10)” value ([12]; 60000 nM) was 0.078 ± 0.054, the “level (log10)” value [13] was 0.0115 ± 0.0078 and the “level (log10)” value ([14]; 6700 nM) was 0.0525 ± 0.0035. The “level (log10)” value ([14]; 20000 nM) was 0.046 ± 0.0057, the “level (log10)” value ([14]; 60000 nM) was 0.0375 ± 0.0078 and the “level (log10)” value (Nonafluoropentanamide; 6700 nM) was 0.003 ± 0.0071. For the same test system, the “level (log10)” value (Nonafluoropentanamide; 20000 nM) was 0.052 ± 0.075, the “level (log10)” value (Nonafluoropentanamide; 60000 nM) was 0.0795 ± 0.023 and the “level (log10)” value ([15]; 6700 nM) was 0.075 ± 0.03. The “level (log10)” value ([15]; 20000 nM) was 0.27 ± 0.012 and the “level (log10)” value ([15]; 60000 nM) was -0.178 ± 0.047.
With BF4T:CD54/ICAM-1 the “level (log10)” value ([1]; 6700 nM) was -0.002 ± 0.0014, the “level (log10)” value ([1]; 20000 nM) was -0.006 and the “level (log10)” value ([1]; 60000 nM) was -0.0045 ± 0.0021. The “level (log10)” value ([2]; 6700 nM) was -0.0105 ± 0.015, the “level (log10)” value ([2]; 20000 nM) was -0.0095 ± 0.022 and the “level (log10)” value ([2]; 60000 nM) was -0.0045 ± 0.0021. For the same test system, the “level (log10)” value ([3]; 6700 nM) was -0.002 ± 0.0057, the “level (log10)” value ([3]; 20000 nM) was 0.0025 ± 0.0021 and the “level (log10)” value ([3]; 60000 nM) was 0.007. The “level (log10)” value ([4]; 6700 nM) was -0.0375 ± 0.0021, the “level (log10)” value ([4]; 20000 nM) was -0.104 ± 0.016 and the “level (log10)” value (Heptafluorobutyl iodide; 6700 nM) was -0.012 ± 0.011. The “level (log10)” value (Heptafluorobutyl iodide; 20000 nM) was -0.008 ± 0.016, the “level (log10)” value (Heptafluorobutyl iodide; 60000 nM) was -0.003 ± 0.031 and the “level (log10)” value ([5]; 6700 nM) was 0.007 ± 0.0042. For the same test system, the “level (log10)” value ([5]; 20000 nM) was -0.0005 ± 0.025, the “level (log10)” value ([5]; 60000 nM) was 0.011 ± 0.0028 and the “level (log10)” value (Octafluoroadipamide; 6700 nM) was -0.015 ± 0.023. For the same test system, the “level (log10)” value (Octafluoroadipamide; 20000 nM) was -0.017 ± 0.021, the “level (log10)” value (Octafluoroadipamide; 60000 nM) was 0.009 ± 0.016 and the “level (log10)” value ([6]; 6700 nM) was -0.015 ± 0.0014. The “level (log10)” value ([6]; 20000 nM) was -0.0375 ± 0.0064, the “level (log10)” value ([6]; 60000 nM) was -0.0645 ± 0.0078 and the “level (log10)” value ([7]; 1500 nM) was -0.019 ± 0.0071. The “level (log10)” value ([7]; 4400 nM) was -0.031 ± 0.016, the “level (log10)” value ([7]; 13000 nM) was -0.014 ± 0.014 and the “level (log10)” value ([7]; 40000 nM) was -0.0105 ± 0.025. The “level (log10)” value ([8]; 6700 nM) was -0.0035 ± 0.0021, the “level (log10)” value ([8]; 20000 nM) was -0.013 ± 0.0014 and the “level (log10)” value ([8]; 60000 nM) was 0.001 ± 0.04. The “level (log10)” value ([9]; 6700 nM) was -0.0215 ± 0.011, the “level (log10)” value ([9]; 20000 nM) was -0.0265 ± 0.0064 and the “level (log10)” value ([10]; 6700 nM) was 0.004 ± 0.011. For the same test system, the “level (log10)” value ([10]; 20000 nM) was -0.0025 ± 0.013, the “level (log10)” value ([11]; 6700 nM) was -0.027 ± 0.016 and the “level (log10)” value ([11]; 20000 nM) was -0.003 ± 0.035. The “level (log10)” value ([11]; 60000 nM) was -0.0245 ± 0.018, the “level (log10)” value (Hexafluoroamylene glycol; 6700 nM) was -0.0145 ± 0.005 and the “level (log10)” value (Hexafluoroamylene glycol; 20000 nM) was -0.0045 ± 0.015. For the same test system, the “level (log10)” value (Hexafluoroamylene glycol; 60000 nM) was 0.009 ± 0.014, the “level (log10)” value ([12]; 6700 nM) was -0.0115 ± 0.00071 and the “level (log10)” value ([12]; 20000 nM) was -0.015 ± 0.021. The “level (log10)” value ([12]; 60000 nM) was -0.0095 ± 0.018, the “level (log10)” value [13] was -0.084 ± 0.011 and the “level (log10)” value ([14]; 6700 nM) was -0.019 ± 0.0042. The “level (log10)” value ([14]; 20000 nM) was -0.0045 ± 0.026, the “level (log10)” value ([14]; 60000 nM) was -0.0195 ± 0.0035 and the “level (log10)” value (Nonafluoropentanamide; 6700 nM) was -0.003 ± 0.0028. The “level (log10)” value (Nonafluoropentanamide; 20000 nM) was -0.0005 ± 0.00071, the “level (log10)” value (Nonafluoropentanamide; 60000 nM) was 0.007 ± 0.0099 and the “level (log10)” value ([15]; 6700 nM) was -0.011 ± 0.0085. The “level (log10)” value ([15]; 20000 nM) was -0.023 and the “level (log10)” value ([15]; 60000 nM) was -0.084.
